In experiment [1] the target is T1, Human immunodeficiency virus type 1 reverse transcriptase (Human immunodeficiency virus 1, UniProt Q72547). The experiment is described as follows: Inhibition of HIV-1 reverse transcriptase polymerization using wild type HIV-1-RT enzyme.
Experiment [2] has as its target T1, Human immunodeficiency virus type 1 reverse transcriptase. Nature of the experiment: Tested for its ability to inhibit HIV-1 reverse transcriptase strand transfer using wild type HIV-1-RT enzyme.
For experiment [3] the target is unchanged. Nature of the experiment: Tested for its ability to inhibit HIV-1 reverse transcriptase strand transfer using A17 double mutant HIV-1-RT enzyme.
For experiment [4] the target is unchanged. The experiment is described as follows: Tested for its ability to inhibit HIV-1 reverse transcriptase polymerization using A17 double mutant HIV-1-RT enzyme.

Regarding `O=C(OCCc1ccc(O)cc1)c1cc(O)c(O)c(O)c1`, the IC50 is 7.9 µM in experiment [1] and 4.5 µM in experiment [2].
Regarding `O=C(OC1COc2cc(O)cc(O)c2C1)c1ccccc1` (centres undefined), the IC50 in experiment [3], in experiment [1], in experiment [4] and in experiment [2] was more than 100 µM each time.
Consider `O=C(OC1COc2cc(O)ccc2C1)c1cc(O)c(O)c(O)c1` (centres undefined), for which the IC50 in experiment [1] is 36.3 µM; in experiment [4] it was 30.8 µM; in experiment [2] it was 7.6 µM.
On the same counts, the results for `O=C(OC1COc2cccc(O)c2C1)c1cc(O)c(O)c(O)c1` (centres undefined) are 45.5 µM, 64.7 µM and 8.7 µM.
`O=C(OC1COc2cc(O)cc(O)c2C1)c1cc(O)c(O)c(O)c1` (centres undefined): the concentration for half-maximal inhibition (IC50) in experiment [3] was 5.5 µM; in experiment [1], 3.8 µM; in experiment [2], 6.2 µM.
On to `COc1cc(OC)c2c(c1)OCC(OC(=O)c1cc(O)c(O)c(O)c1)C2` (centres undefined), for which the IC50 in experiment [3] is 6.9 µM; in experiment [1] it was 72.8 µM; in experiment [4] it was more than 100 µM; in experiment [2], 0.9 µM.
Taken in the same sequence, the figures for `O=C(OCCc1ccc(O)c(O)c1)c1cc(O)c(O)c(O)c1` were 10.5 µM, 10.7 µM, 6.3 µM and 0.6 µM.
Consider `O=C(OCCc1ccccc1)c1cc(O)c(O)c(O)c1`, for which the values for the half-inhibitory concentration (IC50) in experiment [1] and in experiment [2] were 72.9 µM and 6.9 µM, respectively.
Compound `O=C(OC1COc2cc(O)cc(O)c2C1)c1cc(O)cc(O)c1` (centres undefined) yielded an IC50 in experiment [1] of 96.3 µM. This lies in the double-digit micromolar range.
Regarding `O=C(OC1COc2cc(O)cc(O)c2C1)c1ccc(O)c(O)c1` (centres undefined), the half-maximal inhibitory concentration (IC50) in experiment [3] is more than 100 µM; in experiment [1] it was 37.2 µM; in experiment [4], more than 100 µM; in experiment [2], more than 100 µM.
`O=C(OC1COc2ccccc2C1)c1cc(O)c(O)c(O)c1` (centres undefined): the IC50 in experiment [3] is 2.6 µM; in experiment [1], more than 100 µM; in experiment [4], more than 100 µM; in experiment [2], 6.1 µM.

The values are drawn from ChEMBL document CHEMBL1135056, “Differential inhibition of polymerase and strand-transfer activities of HIV-1 reverse transcriptase” (Bioorg Med Chem Lett, 2002).
